This passage reports TGI results from PubChem BioAssay (NCI).

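Compound exposure: 48 hours, 5 concentrations, 96-well plates. The concentration for full growth arrest is given as TGI.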 Where a SMILES comes first, the peptide text is derived from it. The star is where a group is joined. Cbz = O=C(OCc1ccccc1)*; OBn = c1ccc(CO*)cc1

The subject of the first experiment is UACC-257 melanoma. The experiment is described as follows: NCI tumour cell line growth inhibition, 48 h.
As to `COC(=O)CNC(=O)C(C)NC(=O)C(CC(=O)OCc1ccccc1)NC(=O)OCc1ccccc1` (stereo not drawn) (Cbz-Asp(OBn)-Ala-Gly-OMe; configuration not given here), the TGI is greater than 100 µM.
The same measure, in the same setting: with `COC(=O)N1C[C@@]2(C=CC3(CC2)OCCO3)c2ccccc21` the figure was greater than 100 µM.
Still for that read-out and setting: with `N#CC1(C#N)C2CCCCC23OC(=N)C1(C#N)C(c1ccco1)O3` (configuration not stated) the figure was 34.9 µM.
The same measure, in the same setting: then `CC1C2CC(CC(=O)N2)C1(C)C` (configuration not stated), with greater than 100 µM; and `CCOC(=O)/C(O)=C(/C=N\C(=S)Nc1ccccc1Cl)C(=O)OCC`, with greater than 100 µM.
Regarding `O=C(NC(C(F)(F)F)(C(F)(F)F)P(=O)(c1ccccc1)c1ccccc1)C(C(F)(F)F)C(F)(F)F`, the TGI came out at 82.2 µM.
Take `COC(=O)[C@H](Cc1ccccc1)NC(=O)NCCN(CCNC(=O)N[C@@H](Cc1ccccc1)C(=O)OC)C(=O)N[C@@H](Cc1ccccc1)C(=O)OC`: the TGI was 40.4 µM.
The same measure, in the same setting: with `COc1cc2c(cc1OC)-c1[nH]c3ccc(C#N)cc3c1CC(=O)N2` the figure was greater than 100 µM; with `Cn1nc(Cc2ccc(Cl)cc2)n(N)c1=O`, greater than 100 µM; with `Cc1occc1C(=S)Nc1ccc(Cl)c(C(=O)OCC(F)(F)F)c1`, 55.9 µM.
`O=C(O)C1CC2C3CCC2C1C3=O` (configuration not stated) came in with a TGI greater than 100 µM.
On the same count and under the same terms, with `CC(C)c1ccccc1SC1CC(=O)CC(Sc2ccccc2C(C)C)C12O[C@H](c1ccccc1)[C@@H](c1ccccc1)O2` (some centres not stated) the figure was greater than 100 µM.
Still for that read-out and setting: with `CSC1=N[C@H](c2ccccc2)CS1` the figure was greater than 100 µM.
The same measure, in the same setting: then `CCOC(=O)/C(C)=C\[C@@]1(C)O[C@@H](C)[C@@](C)(OC(C)=O)[C@@H]1OC(C)=O`, with greater than 100 µM.
As for `COc1ccc(/C=C2/C(C)=NN(c3cccc(Cl)c3)/C2=N/c2nc3ccccc3s2)cc1`, the TGI was 55.7 µM.
As for `CSc1nc2ccccc2c(=O)n1/N=C1\C(=O)N(CN2CCCCC2)c2ccc(Cl)cc21`, the TGI is 54.2 µM.

The test system of another experiment is 786-0 renal. Put plainly: NCI tumour cell line growth inhibition, 48 h.
`COC(=O)CNC(=O)C(C)NC(=O)C(CC(=O)OCc1ccccc1)NC(=O)OCc1ccccc1` (stereo not drawn) (Cbz-Asp(OBn)-Ala-Gly-OMe; configuration not given here): the TGI was greater than 100 µM.
Same read-out and setting: then `COC(=O)N1C[C@@]2(C=CC3(CC2)OCCO3)c2ccccc21`, with greater than 100 µM.
Regarding `N#CC1(C#N)C2CCCCC23OC(=N)C1(C#N)C(c1ccco1)O3` (configuration not stated), the TGI is 31.2 µM.
Same read-out and setting: with `CC1C2CC(CC(=O)N2)C1(C)C` (configuration not stated) the figure was greater than 100 µM; with `CCOC(=O)/C(O)=C(/C=N\C(=S)Nc1ccccc1Cl)C(=O)OCC`, greater than 100 µM.
For the compound `O=C(NC(C(F)(F)F)(C(F)(F)F)P(=O)(c1ccccc1)c1ccccc1)C(C(F)(F)F)C(F)(F)F`, the TGI worked out at 47.8 µM.
Still for that read-out and setting: then `COC(=O)[C@H](Cc1ccccc1)NC(=O)NCCN(CCNC(=O)N[C@@H](Cc1ccccc1)C(=O)OC)C(=O)N[C@@H](Cc1ccccc1)C(=O)OC`, with 34.1 µM; and `COc1cc2c(cc1OC)-c1[nH]c3ccc(C#N)cc3c1CC(=O)N2`, with greater than 100 µM.
On the same count and under the same terms, then `Cn1nc(Cc2ccc(Cl)cc2)n(N)c1=O`, with greater than 100 µM; and `Cc1occc1C(=S)Nc1ccc(Cl)c(C(=O)OCC(F)(F)F)c1`, with 34.6 µM.
Still for that read-out and setting: with `O=C(O)C1CC2C3CCC2C1C3=O` (configuration not stated) the figure was greater than 100 µM.
`CC(C)c1ccccc1SC1CC(=O)CC(Sc2ccccc2C(C)C)C12O[C@H](c1ccccc1)[C@@H](c1ccccc1)O2` (some centres not stated) yielded a TGI of 33.3 µM.
The same measure, in the same setting: with `CSC1=N[C@H](c2ccccc2)CS1` the figure was greater than 100 µM.
The same measure, in the same setting: then `CCOC(=O)/C(C)=C\[C@@]1(C)O[C@@H](C)[C@@](C)(OC(C)=O)[C@@H]1OC(C)=O`, with greater than 100 µM; and `COc1ccc(/C=C2/C(C)=NN(c3cccc(Cl)c3)/C2=N/c2nc3ccccc3s2)cc1`, with 38.1 µM.
Same read-out and setting: with `CSc1nc2ccccc2c(=O)n1/N=C1\C(=O)N(CN2CCCCC2)c2ccc(Cl)cc21` the figure was 69 µM.

The subject of the next experiment is SK-OV-3 ovarian. The experiment is described as follows: NCI tumour cell line growth inhibition, 48 h.
In the case of `COC(=O)CNC(=O)C(C)NC(=O)C(CC(=O)OCc1ccccc1)NC(=O)OCc1ccccc1` (stereo not drawn) (Cbz-Asp(OBn)-Ala-Gly-OMe; configuration not given here), the TGI was greater than 100 µM.
The same measure, in the same setting: with `COC(=O)N1C[C@@]2(C=CC3(CC2)OCCO3)c2ccccc21` the figure was greater than 100 µM; with `N#CC1(C#N)C2CCCCC23OC(=N)C1(C#N)C(c1ccco1)O3` (configuration not stated), greater than 100 µM; with `CC1C2CC(CC(=O)N2)C1(C)C` (configuration not stated), greater than 100 µM.
Same read-out and setting: then `CCOC(=O)/C(O)=C(/C=N\C(=S)Nc1ccccc1Cl)C(=O)OCC`, with greater than 100 µM; and `O=C(NC(C(F)(F)F)(C(F)(F)F)P(=O)(c1ccccc1)c1ccccc1)C(C(F)(F)F)C(F)(F)F`, with greater than 100 µM.
The same measure, in the same setting: with `COC(=O)[C@H](Cc1ccccc1)NC(=O)NCCN(CCNC(=O)N[C@@H](Cc1ccccc1)C(=O)OC)C(=O)N[C@@H](Cc1ccccc1)C(=O)OC` the figure was greater than 60.8 µM; with `COc1cc2c(cc1OC)-c1[nH]c3ccc(C#N)cc3c1CC(=O)N2`, greater than 100 µM.
For `Cc1occc1C(=S)Nc1ccc(Cl)c(C(=O)OCC(F)(F)F)c1`, the TGI was determined as 51.2 µM.
Compound `O=C(O)C1CC2C3CCC2C1C3=O` (configuration not stated) gave a TGI greater than 100 µM.
The same measure, in the same setting: then `CC(C)c1ccccc1SC1CC(=O)CC(Sc2ccccc2C(C)C)C12O[C@H](c1ccccc1)[C@@H](c1ccccc1)O2` (some centres not stated), with greater than 100 µM.
Same read-out and setting: with `CCOC(=O)/C(C)=C\[C@@]1(C)O[C@@H](C)[C@@](C)(OC(C)=O)[C@@H]1OC(C)=O` the figure was greater than 100 µM; with `COc1ccc(/C=C2/C(C)=NN(c3cccc(Cl)c3)/C2=N/c2nc3ccccc3s2)cc1`, 63.7 µM; with `CSc1nc2ccccc2c(=O)n1/N=C1\C(=O)N(CN2CCCCC2)c2ccc(Cl)cc21`, 94.7 µM.

In another experiment the test system is KM12 colon. The experiment is described as follows: NCI tumour cell line growth inhibition, 48 h.
The compound `COC(=O)CNC(=O)C(C)NC(=O)C(CC(=O)OCc1ccccc1)NC(=O)OCc1ccccc1` (stereo not drawn) (Cbz-Asp(OBn)-Ala-Gly-OMe; configuration not given here) registered a TGI greater than 100 µM.
The same measure, in the same setting: then `COC(=O)N1C[C@@]2(C=CC3(CC2)OCCO3)c2ccccc21`, with greater than 100 µM; and `N#CC1(C#N)C2CCCCC23OC(=N)C1(C#N)C(c1ccco1)O3` (configuration not stated), with greater than 100 µM; and `CC1C2CC(CC(=O)N2)C1(C)C` (configuration not stated), with greater than 100 µM.
Same read-out and setting: then `CCOC(=O)/C(O)=C(/C=N\C(=S)Nc1ccccc1Cl)C(=O)OCC`, with greater than 100 µM; and `O=C(NC(C(F)(F)F)(C(F)(F)F)P(=O)(c1ccccc1)c1ccccc1)C(C(F)(F)F)C(F)(F)F`, with 56.8 µM.
The same measure, in the same setting: then `COC(=O)[C@H](Cc1ccccc1)NC(=O)NCCN(CCNC(=O)N[C@@H](Cc1ccccc1)C(=O)OC)C(=O)N[C@@H](Cc1ccccc1)C(=O)OC`, with 39.5 µM; and `COc1cc2c(cc1OC)-c1[nH]c3ccc(C#N)cc3c1CC(=O)N2`, with greater than 100 µM; and `Cn1nc(Cc2ccc(Cl)cc2)n(N)c1=O`, with greater than 100 µM.
As to `Cc1occc1C(=S)Nc1ccc(Cl)c(C(=O)OCC(F)(F)F)c1`, the TGI was determined as 44.4 µM.
Same read-out and setting: then `O=C(O)C1CC2C3CCC2C1C3=O` (configuration not stated), with greater than 100 µM.
`CC(C)c1ccccc1SC1CC(=O)CC(Sc2ccccc2C(C)C)C12O[C@H](c1ccccc1)[C@@H](c1ccccc1)O2` (some centres not stated) returned a TGI greater than 100 µM.
Still for that read-out and setting: with `CSC1=N[C@H](c2ccccc2)CS1` the figure was greater than 100 µM; with `CCOC(=O)/C(C)=C\[C@@]1(C)O[C@@H](C)[C@@](C)(OC(C)=O)[C@@H]1OC(C)=O`, greater than 100 µM; with `COc1ccc(/C=C2/C(C)=NN(c3cccc(Cl)c3)/C2=N/c2nc3ccccc3s2)cc1`, greater than 100 µM.
Same read-out and setting: with `CSc1nc2ccccc2c(=O)n1/N=C1\C(=O)N(CN2CCCCC2)c2ccc(Cl)cc21` the figure was greater than 100 µM.

For a further experiment, the system named is SK-MEL-2 melanoma. The experiment is described as follows: NCI tumour cell line growth inhibition, 48 h.
Compound `COC(=O)CNC(=O)C(C)NC(=O)C(CC(=O)OCc1ccccc1)NC(=O)OCc1ccccc1` (stereo not drawn) (Cbz-Asp(OBn)-Ala-Gly-OMe; configuration not given here) came in with a TGI greater than 100 µM.
Still for that read-out and setting: then `COC(=O)N1C[C@@]2(C=CC3(CC2)OCCO3)c2ccccc21`, with greater than 100 µM; and `N#CC1(C#N)C2CCCCC23OC(=N)C1(C#N)C(c1ccco1)O3` (configuration not stated), with 45.3 µM; and `CCOC(=O)/C(O)=C(/C=N\C(=S)Nc1ccccc1Cl)C(=O)OCC`, with greater than 100 µM.
Same read-out and setting: with `O=C(NC(C(F)(F)F)(C(F)(F)F)P(=O)(c1ccccc1)c1ccccc1)C(C(F)(F)F)C(F)(F)F` the figure was greater than 100 µM.
